Consider one molecule from US7419780B2, “Methods and assays for screening protein targets” (The Trustees of Columbia University in the City of New York, priority 2000, dated 2008).

Molecules are shown by their SMILES.

This series concerns S. cerevisiae strain FY250.

For `C[C@@H]1C[C@H]2[C@@H]3CCC4=CC(=O)C=C[C@]4(C)[C@@]3(F)[C@@H](O)C[C@]2(C)[C@@]1(O)C(=O)CO` [DEX, Dexamethasone], the “toxicity (impaired cell growth on plate)” value is “neither DEX nor GR are toxic”.
